Experimental findings from PubChem BioAssay (NCI) are described below.

Holding throughout (test): inhibition of tumour cell growth, NCI panel, 48 h
Test [1] concerns ACHN renal.
Test [2] relates to SK-MEL-2 melanoma.
Test [3] relates to RXF 393 renal.
The test system of test [4] is NCI/ADR-RES ovarian.
Test [5] relates to DU-145 prostate.
Test [6] deals with SF-295 CNS.
The test system of test [7] is OVCAR-5 ovarian.
In test [8] the test system is PC-3 prostate.
For test [9], the system named is HT29 colon.
Test [10] deals with UACC-62 melanoma.

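Dose response: 5 concentrations. Exposure: 48 h. Format: 96-well plates. Endpoint: linear interpolation; highest concentration if not reached. At the GI50, growth is halved. TGI: concentration producing complete growth inhibition.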

Take `C#CCNC(=O)CC[C@]1(C)[C@H]2CC[C@@H]3[C@@H]([C@@](C)(O)CCC=C(C)C)CC[C@@]3(C)[C@]2(C)CC[C@H]1C(=C)C`: the GI50 in test [1] was 25.3 µM; in [2], 47.1 µM; in test [3], 26.2 µM; in test [4] it was 40.5 µM; in [5], 34.8 µM; in test [6] it was 48.4 µM. The GI50 in [7] was 51.9 µM; in test [8], 17.4 µM; in test [9] it was 18.8 µM; in test [10], 22.5 µM. Besides, the TGI in [1] was more than 100 µM; in [2], more than 100 µM; in test [3], 81.9 µM; in [4] it was more than 100 µM; in test [5], more than 100 µM; in test [6], more than 100 µM. Besides, the TGI in test [7] is more than 100 µM; in [8], 70 µM; in [9] it was 42.9 µM; in test [10] it was more than 100 µM.

With `CCOC(=O)c1c(C)n2c(=O)cc(C)c3c(OC(C)=O)c(OC(C)=O)cc1c32`, the GI50 was 4.89 µM in test [1]; 4.57 µM in test [2]; 3.43 µM in test [3]; 2.69 µM in test [4]; 6.33 µM in test [5]; 5.2 µM in test [6]. For the same molecule, the GI50 in test [7] is 11.9 µM; in [8], 5.65 µM; in [9] it was 10.9 µM; in [10], 4.22 µM. The TGI in test [1] was more than 71.5 µM; in test [2], 29.8 µM; in test [3], 15.8 µM; in test [4], more than 27 µM; in test [5] it was 22.2 µM; in test [6], 45.2 µM. For the same molecule, the TGI in [7] was 42.2 µM; in [8] it was more than 49.7 µM; in [9] it was 47.5 µM; in [10] it was 14.4 µM.

Regarding `CC(=O)OC[C@]12CC[C@@H]([C@@H](C)C(N)=O)[C@@H]1[C@H]1CC[C@@H]3[C@@]4(C)CC[C@H](OC(C)=O)C(C)(C)[C@@H]4CC[C@@]3(C)[C@]1(C)CC2`, the GI50 in [1] is 5.78 µM; in test [2], 10.8 µM; in test [3], 4.28 µM; in test [4], 7.74 µM; in [5], 9.94 µM; in test [6], 8.57 µM. Moreover, the GI50 in test [7] is 14.4 µM; in test [8], 2.67 µM; in test [9] it was 3.73 µM; in test [10], 5.46 µM. The TGI stood at 27.3 µM in [1]; 27.5 µM in test [2]; 16.3 µM in test [3]; 27.2 µM in test [4]; 23.3 µM in [5]; 29.8 µM in test [6]. Besides, the TGI was 32.2 µM in [7], 11.6 µM in test [8], 15.4 µM in test [9] and 19.5 µM in test [10].

Take `COc1ccc(Cc2cnc(NC(=O)c3sc4ccccc4c3Cl)s2)cc1`: the GI50 in test [1] was 0.808 µM; in [2], 0.703 µM; in test [3] it was 0.179 µM; in test [4] it was 0.342 µM; in [5] it was 0.37 µM; in test [6] it was 0.383 µM. Moreover, the GI50 in test [7] is 0.587 µM; in test [8] it was 0.405 µM; in test [9], 0.37 µM; in [10] it was 0.468 µM. Moreover, the TGI in [1] was more than 100 µM; in test [2], more than 100 µM; in [3], 0.579 µM; in test [4], more than 100 µM; in [5], more than 100 µM; in test [6], more than 100 µM. The TGI in test [7], in test [8], in [9] and in [10] was more than 100 µM throughout.

With `CCCN(CCC)CCCNC(=O)c1cc2c(-c3ccc(OC)c(OC)c3)nn(C)c2s1`, the GI50 in [1] is 17.2 µM; in [2], 25.2 µM; in [3] it was 10.7 µM; in test [4] it was 33.4 µM; in [5], 39.1 µM; in test [6] it was 21.6 µM. For the same molecule, the GI50 in test [7] is 50.4 µM; in test [8], 33.8 µM; in [9], 14.5 µM; in [10], 16.9 µM. For the same molecule, the TGI in test [1] was 39.5 µM; in test [2], 72.9 µM; in test [3] it was 31.1 µM; in [4], more than 100 µM; in test [5], more than 100 µM; in [6], 49.4 µM. The TGI in test [7] was more than 100 µM; in [8] it was more than 100 µM; in test [9], 45.3 µM; in [10], 33 µM.

As for `OC(COc1cccc2ccccc12)CN1CCN(c2ccccc2)CC1` (stereo not given), the GI50 was 16.2 µM in test [1]; 16.2 µM in [2]; 18.2 µM in [3]; 15.4 µM in test [4]; 17.7 µM in test [5]; 12.6 µM in test [6]. Also, the GI50 in test [7] is 16.4 µM; in test [8], 12.5 µM; in [9] it was 15 µM; in [10] it was 14.1 µM. Also, the TGI came out at 30.6 µM in test [1]; 30.6 µM in [2]; 32.9 µM in test [3]; 30.4 µM in [4]; 31.9 µM in test [5]; 26.6 µM in [6]. In addition, the TGI in test [7] came to 30.8 µM; in test [8], 29 µM; in test [9], 30 µM; in [10] it was 28.5 µM.

For `COC(=O)Nc1nc2cc3c(cc2s1)OCCO3`, the GI50 in test [1], in test [2], in test [3], in test [4], in test [5] and in [6] was more than 50 µM throughout. In addition, the GI50 in test [7], in test [8], in test [9] and in [10] was more than 50 µM in each case. For the same molecule, the TGI in test [1], in test [2], in test [3], in [4], in test [5] and in [6] was more than 50 µM throughout. For the same molecule, the TGI in [7], in [8], in test [9] and in test [10] was more than 50 µM throughout.
